Assay results as given in patent US7118745B1, “Engineering antibodies that bind irreversibly” (The Regents of the University of California, priority 1999, dated 2006).

Assays:
native antibody CHA255 = assay: Control incubation of chelates with native antibody CHA255 (covalent labeling); type: biochemical, mouse; settings: indium chelates incubated with native antibody; BABE: after several hours
Experimental: As a control, the same chelates were incubated with native antibody CHA255, to see if they would covalently label it.

S95C Fab light chain = assay: Covalent cross-linking of 111In-labeled chelates to S95C Fab in culture medium (SDS-PAGE, phosphorimage); type: biochemical, mouse/human chimeric; settings: 111In-labeled chelate, culture medium containing S95C mutant, 30 minutes
Experimental: FIG. 18 is a phosphorimage of a 15% SDS-PAGE gel of samples incubated 30 minutes at 37° C. Chelates (CABE, CpABE, AABE, ABE) are in lanes 1–4, along with culture medium containing the S95C mutant. The (radiolabeled) band (at 26 kDa) in lane 1 is the crosslink between CABE (our positive control) and S95C Fab light chain. […] No crosslinks are observed with the non-nucleophilic native Fab, nor with the N96C mutant.
100 μl of complete culture medium from S2 cultures expressing each of the CHA255 Chimeric Fabs was mixed with 5 μl of 100 mM DOTA to sequester Cu^2+ from induction of expression. Each chelate was loaded with ^111In as previously described with a specific activity of 200 μCi. Complete metallation was analyzed by TLC as described previously. Specifically, 1 μl of chelate was added to 2.8 μl of 0.1 M citrate buffer (pH 5.5) to which was added 1.2 μl of carrier free ^111In (Nordion) ([…]) and the chelate was analyzed by TLC. 4 μl of loaded chelate was added to the 105 μl of Fab-DOTA in medium. This solution was incubated for 30 min. at room temperature. The reaction was stopped by separation of excess chelate by gel filtration spin chromatography (Penefsky column). 20 μl of eluant was added to 5 μl of sample application buffer containing β-mercaptoethanol (5×SDS PAGE SAB), boiled and reduced for 10 min. at 95° C. This was loaded onto a 1020% SDS-Page gel and electrophoriesed for 1 hr at 200V. The gel was fixed and dried via standard protocols and then exposed to a phosphorimager plate for 12 h. The plate was visualized with a Storm 640 phosphorimager (Molecular Dymanics).
In-labeled electrophilic chelates were incubated in Fab-containing culture medium to investigate whether either of the mutant antibodies would bind irreversibly to its target. Serum-containing culture medium was used as a representation of typical biological media. […] We incubated ^111In-labeled chelates bearing electrophilic acrylamido, chloroproprionamido, or chloroacetamido groups at physiological pH and temperature with raw tissue culture medium from the cells expressing the recombinant antibodies. As a control, an ^111In-labeled chelate bearing the non-electrophilic amino group was also included. At various times after addition of the radioactive chelates, we removed samples from the incubation and applied them to a gel filtration spin column to remove excess radiolabeled chelate.
The samples were analyzed by SDS-PAGE and visualized by phosphorimager. Separation under reducing and denaturing conditions on SDS-PAGE will separate the light chain from the heavy chain of each Fab, functionally destroying the antibody-binding pocket.

human serum albumin = human serum albumin (Homo sapiens, UniProt P02768); assay: Stability of 111In-labeled bifunctional chelates incubated with human serum albumin (TLC); type: in vitro ADME; settings: after 20 hrs; 20 mM Hepes, pH 7.4, 37° C.; 1 mM free sulfhydryl as human serum albumin
Experimental: The electrophilic chelates AABE, CABE, BABE were labeled with indium-111 and incubated in a Hepes buffered solution at physiological pH and temperature (20 mM Hepes, pH 7.4, 37° C.) containing 1 mM free sulfhydryl groups in the form of human serum albumin-approximating the concentration of thiols in plasma.
The reactive chelates 5–7 and aminobenzyl-EDTA (“ABE”) were labeled with ^111In and analyzed by TLC (50:50 Methanol/10% NaOAc pH8.2) to show complete chelation. To 0.5 mL of human serum albumin solution was added 2 μl of one of the labeled chelates. […] The vials were mixed by manual agitation, and 2 μl was removed and analyzed by TLC.
The fraction unreacted is plotted versus incubation time in FIG. 6. After 20 hrs, >95% of the In-AABE and In-CABE molecules were unreacted, while most of the In-BABE was attached to albumin. This confirmed the expectation that AABE and CABE are stable, and are good candidates for pretargeting. We infer that these chelates should be unreactive in blood for the length of time needed for pretargeting (40 min–4 hrs); if not, many other choices are available.

Sequence of human serum albumin (P02768 25-609): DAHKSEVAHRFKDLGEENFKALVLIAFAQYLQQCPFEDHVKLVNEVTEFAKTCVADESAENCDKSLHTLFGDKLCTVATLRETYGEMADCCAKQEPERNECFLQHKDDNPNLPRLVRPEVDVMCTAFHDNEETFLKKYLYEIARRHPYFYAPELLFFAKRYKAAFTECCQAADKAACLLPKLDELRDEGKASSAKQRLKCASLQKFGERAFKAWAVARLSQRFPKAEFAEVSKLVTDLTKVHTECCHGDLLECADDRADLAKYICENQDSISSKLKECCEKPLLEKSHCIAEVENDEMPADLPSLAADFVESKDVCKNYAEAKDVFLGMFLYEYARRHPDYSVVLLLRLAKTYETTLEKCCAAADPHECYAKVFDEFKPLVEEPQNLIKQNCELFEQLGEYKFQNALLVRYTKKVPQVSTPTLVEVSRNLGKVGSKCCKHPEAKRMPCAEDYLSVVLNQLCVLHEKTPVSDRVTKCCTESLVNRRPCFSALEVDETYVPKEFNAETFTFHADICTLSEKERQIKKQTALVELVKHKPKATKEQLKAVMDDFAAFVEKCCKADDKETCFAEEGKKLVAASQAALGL

Compound	covalent attachment to native CHA255 (native antibody CHA255)	crosslink of chelate with S95C Fab light chain (radiolabeled 26 kDa band) (S95C Fab light chain)	crosslink of chelate with S95C Fab light chain (radiolabeled 26 kDa band) (S95C Fab light chain; listed as In-AABE)	chelate attached to albumin (human serum albumin)	crosslink of chelate with S95C Fab light chain (radiolabeled 26 kDa band) (S95C Fab light chain; listed as In-CABE)
Nc1ccc(CC(CN(CC(=O)O)CC(=O)O)N(CC(=O)O)CC(=O)O)cc1 (stereo not shown) [ABE, aminobenzyl-EDTA, reference compound]	did not covalently attach	does not show crosslinks	–	–	–
C=CC(=O)Nc1ccc(CC(CN(CC(=O)O)CC(=O)O)N(CC(=O)O)CC(=O)O)cc1 (stereo not shown) [AABE, Acrylamidobenzyl-EDTA]	did not covalently attach	26 kDa band	reacted equally well	–	–
O=C(O)CN(CC(=O)O)CC(Cc1ccc(NC(=O)CBr)cc1)N(CC(=O)O)CC(=O)O (stereo not shown) [BABE, bromoacetylamidobenzyl]	did react to some degree	–	–	most	–
O=C(O)CN(CC(=O)O)CC(Cc1ccc(NC(=O)CCl)cc1)N(CC(=O)O)CC(=O)O (stereo not shown) [CABE, chloroacetylamidobenzyl]	did not covalently attach	crosslink	–	–	reacted equally well
